Source: patent publication US11008344B2, “Tricyclic heteroaryl compounds as STING activators” (Incyte Corporation, priority 2018, dated 2021)
pEC50: −log10 of the molar value.

Test system: IRF3
Assay: IRF3 activation assay in THP-1 Dual Cells (QUANTI-Blue reporter)
Assay type: cell-based
Conditions: Homo sapiens, THP1-Dual, 24 hours incubation, absorbance at 620-655 nm
Description: THP-1 Dual Cells (Invivogen) were maintained in RPMI1640 medium with addition of 10% FBS, 100 μg/mL zeocin, 10 μg/mL blasticidin. Cells were added in a 96-well flat bottom assay plate at 100,000 per well in 100 μL complete RPMI medium. Test compounds were prepared by serial dilution in complete RPMI medium and 100 μL test compounds were transferred to each corresponding well. The assay plate was incubated at 37° C., 5% CO2 for 24 hours. After the overnight incubation, 20 μL of the culture supernatants were collected, followed by addition of 180 μL of QUANTI-Blue (Invivogen) to assess IRF3 activity. The amount of IRF3 activation was assessed by reading the absorbance at 620-655 nm with a microplate reader 2 hours later. The culture supernatant from the untreated THP-1 cells was used as the negative control. To determine the NF-κB activation, another 20 μL of culture supernatant were transferred to a 96-well white plate, followed by addition of 50 μL of Quanti-Luc™ assay solution (Invivogen). The amount of NF-κB activation induced by the test compounds were determined by the luminescence above the untreated control. EC50 determination was performed by fitting the curve of percent control activity versus the log of the compound concentration using the GraphPad Prism 6.0 software.

| SMILES | pEC50 |
| --- | --- |
| CCn1nc(C)cc1-c1ncc2c3cc(C(N)=O)cc(OCCCO)c3n(C/C=C/Cn3c4nc(-c5cc(C)nn5CC)ncc4c4cc(C(N)=O)cc(OCCCO)c43)c2n1 [Example 2, (E)-9,9′-(but-2-ene-1,4-diyl)bis(2-(1-ethyl-3-methyl-1H-pyrazol-5-yl)-8-(3-hydroxypropoxy)-9H-pyrimido[4,5-b]indole-6-carboxamide)] | ≥ 7.00 |
| CCn1nc(C)cc1-c1ncc2c3cc(C(N)=O)cc(OC)c3n(C/C=C/Cn3c4nc(-c5cc(C)nn5CC)ncc4c4cc(C(N)=O)cc(OC)c43)c2n1 [Example 1, (E)-9,9′-(but-2-ene-1,4-diyl)bis(2-(1-ethyl-3-methyl-1H-pyrazol-5-yl)-8-methoxy-9H-pyrimido[4,5-b]indole-6-carboxamide)] | ≥ 7.00 |
